Legend:
[1] = Human liver microsomes (HLMs) intrinsic clearance assay; type: in vitro ADME; settings: human, microsomes; for microsomal CLint at 1 µM: pH 7.4, HLM CLint
hERG = hERG (Homo sapiens (Human), UniProt Q12809); experiment: hERG assay 1 (standard), SyncroPatch 384PE; type: cell-based; settings: CHO cells, room temperature, up to 40 uM
Outline: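 Automated patch clamp on hERG-expressing CHO-K1 cells at room temperature, +60/−40 mV protocol every 15 s. Six-point cumulative concentrations 139 nM to 40 uM (0.33% DMSO final); IC50 from one-site fit of % inhibition. Wells required ≥30 MegaOhm seal, current >0.2 nA, Z prime >0.4.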

Chain of hERG (Q12809 whole entry): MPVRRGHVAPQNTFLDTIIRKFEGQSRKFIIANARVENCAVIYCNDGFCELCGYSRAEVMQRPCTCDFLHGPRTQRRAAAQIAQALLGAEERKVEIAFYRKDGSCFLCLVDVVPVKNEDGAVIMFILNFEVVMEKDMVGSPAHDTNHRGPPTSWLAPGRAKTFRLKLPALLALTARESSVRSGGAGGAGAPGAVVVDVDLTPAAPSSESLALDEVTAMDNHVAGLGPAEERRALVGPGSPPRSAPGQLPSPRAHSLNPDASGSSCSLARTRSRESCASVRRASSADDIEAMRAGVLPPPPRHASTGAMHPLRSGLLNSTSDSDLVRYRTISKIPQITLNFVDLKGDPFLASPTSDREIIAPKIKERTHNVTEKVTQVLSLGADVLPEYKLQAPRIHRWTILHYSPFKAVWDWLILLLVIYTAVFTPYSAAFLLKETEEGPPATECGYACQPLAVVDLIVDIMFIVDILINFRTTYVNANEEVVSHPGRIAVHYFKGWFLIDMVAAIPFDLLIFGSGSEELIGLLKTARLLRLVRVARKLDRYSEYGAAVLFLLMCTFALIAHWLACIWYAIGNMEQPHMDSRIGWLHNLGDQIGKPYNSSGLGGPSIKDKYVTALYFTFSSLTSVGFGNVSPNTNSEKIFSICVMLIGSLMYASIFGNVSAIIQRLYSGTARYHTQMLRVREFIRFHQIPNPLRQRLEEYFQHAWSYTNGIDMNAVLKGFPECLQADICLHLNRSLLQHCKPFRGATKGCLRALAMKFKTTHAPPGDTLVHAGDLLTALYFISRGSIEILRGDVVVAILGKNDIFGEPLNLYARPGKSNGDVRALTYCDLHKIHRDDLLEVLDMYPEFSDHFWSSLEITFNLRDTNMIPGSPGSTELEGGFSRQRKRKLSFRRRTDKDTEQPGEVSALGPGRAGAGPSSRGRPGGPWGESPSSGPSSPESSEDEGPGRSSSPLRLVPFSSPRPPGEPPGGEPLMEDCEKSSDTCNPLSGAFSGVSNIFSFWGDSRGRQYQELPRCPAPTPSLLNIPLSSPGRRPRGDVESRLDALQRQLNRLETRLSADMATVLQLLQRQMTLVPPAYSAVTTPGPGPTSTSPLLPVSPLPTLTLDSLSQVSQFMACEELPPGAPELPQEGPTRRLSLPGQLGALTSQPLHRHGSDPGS

Compound	microsomal CLint at 1 µM [1] [µL/min/mg]	HLM CLint ([1]; 1 µM, pH 7.4) [µL/min/mg]	IC50 (hERG) [µM]
CC(C)N(C(=O)c1cc(F)ccc1-n1cc(C(=O)C2CN(C(=O)[C@H]3NC4CCC3CC4)C2)c2ccncc21)C(C)C [Example 6, (S)-2-(3-(1-(2-Azabicyclo[2.2.2]octane-3-carbonyl)azetidine-3-carbonyl)-1H-pyrrolo[2,3-c]pyridin-1-yl)-5-fluoro-N,N-diisopropylbenzamide]	40		
CC(C)N(C(=O)c1cc(F)ccc1-n1cc(C(=O)C2CCN(C(=O)[C@H]3NC[C@@H]4C[C@@H]43)CC2)c2ccncc21)C(C)C [Example 19, 2-(3-(1-((1S,2S,5R)-3-Azabicyclo[3.1.0]hexane-2-carbonyl)piperidine-4-carbonyl)-1H-pyrrolo[2,3-c]pyridin-1-yl)-5-fluoro-N,N-diisopropylbenzamide]	56		> 40
COCCN(C)CCC[C@H](C(C)C)N1CCC(C(=O)c2cn(-c3ccc(F)cc3C(=O)N(C(C)C)C(C)C)c3cnccc23)CC1 (racemic) [Example 23, rac-(R)-5-Fluoro-N,N-diisopropyl-2-(3-(1-(6-((2-methoxyethyl)(methyl)amino)-2-methylhexan-3-yl)piperidine-4-carbonyl)-1H-pyrrolo[2,3-c]pyridin-1-yl)benzamide]	156		30.6
CC(C)N(C(=O)c1cc(F)ccc1-n1cc(C(=O)C2CCN(C(=O)[C@H]3NC4CCC3CC4)CC2)c2ccncc21)C(C)C [Example 20, (S)-2-(3-(1-(2-Azabicyclo[2.2.2]octane-3-carbonyl)piperidine-4-carbonyl)-1H-pyrrolo[2,3-c]pyridin-1-yl)-5-fluoro-N,N-diisopropylbenzamide]	27		> 40
C=C1C[C@@H]2CC[C@H]1[C@@H](C(=O)N1CCC(C(=O)c3cn(-c4ccc(F)cc4C(=O)N(C(C)C)C(C)C)c4cnccc34)CC1)N2 [Example 18, 5-Fluoro-N,N-diisopropyl-2-(3-(1-((1S,3S,4R)-5-methylene-2-azabicyclo[2.2.2]-octane-3-carbonyl)piperidine-4-carbonyl)-1H-pyrrolo[2,3-c]pyridin-1-yl)benzamide]	172		> 40
Cc1c(C(=O)C2CCN(C(=O)[C@@H]3CCC(C)(C)N3)CC2)c2ccncc2n1-c1ccc(F)cc1C(=O)N(C(C)C)C(C)C (single isomer, unassigned) [Example 56-1]	133		> 40
CC(C)N(C(=O)c1cc(F)ccc1-n1cc(C(=O)C2CCN(C(=O)[C@H]3N[C@H]4C[C@@H]3[C@@H](F)C4)CC2)c2ccncc21)C(C)C [Example 22, 5-Fluoro-2-(3-(1-((1S,3S,4S,5S)-5-fluoro-2-azabicyclo[2.2.1]heptane-3-carbonyl)piperidine-4-carbonyl)-1H-pyrrolo[2,3-c]pyridin-1-yl)-N,N-diisopropylbenzamide]	91		> 40
CCN(C(=O)c1cc(F)ccc1-n1cc(C(=O)C2CCN(C(=O)[C@H]3NC[C@@H]4C[C@@H]43)CC2)c2ccncc21)C(C)C [Example 28, 2-(3-(1-((1S,2S,5R)-3-Azabicyclo[3.1.0]hexane-2-carbonyl)piperidine-4-carbonyl)-1H-pyrrolo[2,3-c]pyridin-1-yl)-N-ethyl-5-fluoro-N-isopropylbenzamide]	41		> 40
CC(C)c1ncsc1-c1cc(F)ccc1-n1cc(C(=O)C2CN(C(=O)[C@H]3N[C@@H]4CC[C@H]3C4)C2)c2ccncc21.O=CO [Example 12, (1-((1R,3S,4S)-2-Azabicyclo[2.2.1]heptane-3-carbonyl)azetidin-3-yl)(1-(4-fluoro-2-(4-isopropylthiazol-5-yl)phenyl)-1H-pyrrolo[2,3-c]pyridin-3-yl)methanone 1·formic acid]	216		> 40
CC(C)N(C(=O)c1cc(F)ccc1-n1cc(C(=O)C2CCN(C(=O)[C@H]3NC[C@@H]4CCC[C@@H]43)CC2)c2ccncc21)C(C)C [Example 21, 5-Fluoro-N,N-diisopropyl-2-(3-(1-((1S,3αR,6αS)-octahydrocyclopenta[c]pyrrole-1-carbonyl)piperidine-4-carbonyl)-1H-pyrrolo[2,3-c]pyridin-1-yl)benzamide]	197		> 40

Second part, led by results:

microsomal CLint at 1 µM [1] [µL/min/mg]	HLM CLint ([1]; 1 µM, pH 7.4) [µL/min/mg]	Compound	IC50 (hERG) [µM]
12		Cc1c(C(=O)[C@@H]2CCN(C(=O)[C@@H]3CC[C@H](C)N3)[C@@H](C)C2)c2ccncc2n1-c1ccc(F)cc1C(=O)N(C(C)C)C(C)C (stereo in doubt) [Example 62, 5-Fluoro-N,N-diisopropyl-2-(2-methyl-3-((2S,4RS)-2-methyl-1-((2S,5S)-5-methylpyrrolidine-2-carbonyl)piperidine-4-carbonyl)-1H-pyrrolo[2,3-c]pyridin-1-yl)benzamide]	> 40
180		CC(C)c1ccncc1-c1cc(F)ccc1-n1cc(C(=O)C2CCN(C(=O)[C@H]3N[C@@H]4CC[C@H]3C4)CC2)c2ccncc21 [Example 41, (1-((1R,3S,4S)-2-Azabicyclo[2.2.1]heptane-3-carbonyl)piperidin-4-yl)(1-(4-fluoro-2-(4-isopropylpyridin-3-yl)phenyl)-1H-pyrrolo[2,3-c]pyridin-3-yl)methanone]	> 40
18		O=C(c1cn(-c2ccc(F)cc2-c2cncnc2C2CC2)c2cnccc12)C1CCN(C(=O)[C@H]2N[C@@H]3CC[C@H]2C3)CC1 [Example 40, (1-((1R,3S,4S)-2-Azabicyclo[2.2.1]heptane-3-carbonyl)piperidin-4-yl)(1-(2-(4-cyclopropylpyrimidin-5-yl)-4-fluorophenyl)-1H-pyrrolo[2,3-c]pyridin-3-yl)methanone]	> 40
50		CCN(C(=O)c1cc(F)ccc1-n1c(C)c(C(=O)C2CCN(C(=O)[C@H]3N[C@@H]4CC[C@H]3C4)CC2)c2ccncc21)C(C)C [Example 46, 2-(3-(1-((1R,3S,4S)-2-Azabicyclo[2.2.1]heptane-3-carbonyl)piperidine-4-carbonyl)-2-methyl-1H-pyrrolo[2,3-c]pyridin-1-yl)-N-ethyl-5-fluoro-N-isopropylbenzamide]	> 40
125		Cc1c(C(=O)C2CCN(C(=O)[C@H]3NC[C@@H]4C[C@@H]43)CC2)c2ccncc2n1-c1ccc(F)cc1C(=O)N(C(C)C)C(C)C (single isomer, unassigned) [Example 55-1]	> 40
54		Cc1c(C(=O)C2CCN(C(=O)[C@H]3NC[C@@H]4C[C@@H]43)CC2)c2ccncc2n1-c1ccc(F)cc1C(=O)N(CC(F)(F)F)C(C)C (single isomer, unassigned) [Example 51-1]	> 40
23		CCN(C(=O)c1cc(F)ccc1-n1cc(C(=O)C2CCN(C(=O)[C@H]3N[C@@H]4CC[C@H]3C4)CC2)c2ccncc21)C(C)C [Example 31, 2-(3-(1-((1R,3S,4S)-2-Azabicyclo[2.2.1]heptane-3-carbonyl)piperidine-4-carbonyl)-1H-pyrrolo[2,3-c]pyridin-1-yl)-N-ethyl-5-fluoro-N-isopropylbenzamide]	> 40
52		CC(C)c1ncncc1-c1cc(F)ccc1-n1cc(C(=O)C2CCN(C(=O)[C@H]3N[C@@H]4CC[C@H]3C4)CC2)c2ccncc21 [Example 37, (1-((1R,3S,4S)-2-Azabicyclo[2.2.1]heptane-3-carbonyl)piperidin-4-yl)(1-(4-fluoro-2-(4-isopropylpyrimidin-5-yl)phenyl)-1H-pyrrolo[2,3-c]pyridin-3-yl)methanone]	> 40
131		CC(C)c1ncccc1-c1cc(F)ccc1-n1cc(C(=O)C2CCN(C(=O)[C@H]3N[C@@H]4CC[C@H]3C4)CC2)c2ccncc21 [Example 38, (1-((1R,3S,4S)-2-Azabicyclo[2.2.1]heptane-3-carbonyl)piperidin-4-yl)(1-(4-fluoro-2-(2-isopropylpyridin-3-yl)phenyl)-1H-pyrrolo[2,3-c]pyridin-3-yl)methanone]	> 40
63		CCN(C(=O)c1cc(F)ccc1-n1c(C)c(C(=O)[C@@H]2CCN(C(=O)[C@@H]3CC[C@H](C)N3)[C@@H](C)C2)c2ccncc21)C(C)C (stereo in doubt) [Example 63, N-Ethyl-5-fluoro-N-isopropyl-2-(2-methyl-3-((2S,4RS)-2-methyl-1-((2S,5S)-5-methylpyrrolidine-2-carbonyl)piperidine-4-carbonyl)-1H-pyrrolo[2,3-c]pyridine-1-yl)benzamide]	> 40
11		C[C@@H]1COC[C@@H](C)N1C(=O)c1cc(F)ccc1-n1cc(C(=O)C2CCN(C(=O)[C@H]3N[C@@H]4CC[C@H]3C4)CC2)c2ccncc21 [Example 34, (1-((1R,3S,4S)-2-Azabicyclo[2.2.1]heptane-3-carbonyl)piperidin-4-yl)(1-(2-((3R,5R)-3,5-dimethylmorpholine-4-carbonyl)-4-fluorophenyl)-1H-pyrrolo[2,3-c]pyridin-3-yl)methanone]	> 40
58		CC(C)n1nccc1-c1cc(F)ccc1-n1cc(C(=O)C2CCN(C(=O)[C@H]3N[C@@H]4CC[C@H]3C4)CC2)c2ccncc21 [Example 36, (1-((1R,3S,4S)-2-Azabicyclo[2.2.1]heptane-3-carbonyl)piperidin-4-yl)(1-(4-fluoro-2-(1-isopropyl-1H-pyrazol-5-yl)phenyl)-1H-pyrrolo[2,3-c]pyridin-3-yl)methanone]	> 40
	69	CCN(C(=O)c1cc(F)ccc1-n1c(C)c(C(=O)C2CCN(C(=O)[C@H]3NC[C@@H]4C[C@@H]43)CC2)c2ccncc21)C(C)C (single isomer, unassigned) [Example 48-1]	> 40
